This is an account of results in US11235029B2, “Methods for treating heart failure with a TRKB agonist” (Temple University-Of The Commonwealth System of Higher …, priority 2017, dated 2022).

Data set [1] has as its system mice with myocardial infarction. The experiment in a line: chronic infusion of TrkB agonist in mice with myocardial infarction (echocardiography, fibrosis, heart rate). Format: in vivo. How it is done:
FIG. 7, comprising FIG. 7A through FIG. 7C, depicts experimental results. FIG. 7A depicts rescue of cardiac defects following MI resulting from chronic infusion of LM22A-4, a specific agonist of TrkB (Massa S M, et a. J Clin Invest. 2010; 120:1774-85) at 0.2 mg/kg/day in saline, started 1 week after MI. […] FIG. 7B depicts cardiac tissue sections and quantitation of fibrosis observed in sham, MI, and MI+LM22A-4 groups. Compared to the MI group without treatment, fibrosis was lower in TrkB agonist-treated hearts.
FIG. 7A depicts rescue of cardiac defects following FIG. 7A depicts rescue of cardiac defects following MI resulting from chronic infusion of LM22A-4, a specific agonist of TrkB (Massa S M, et al. J Clin Invest. 2010; 120:1774-85), at 0.2 mg/kg/day in saline, started 1 week after MI.
Overall fibrosis was lower in TrkB agonist-treated hearts (FIG. 7B). FIG. 7B depicts cardiac tissue sections and quantitation of fibrosis observed in sham, MI, and MI+LM22A-4 groups. Compared to the MI group without treatment, fibrosis was lower in TrkB agonist-treated hearts.

A further data set relates to BDNF. The experiment in a line: BDNF immunoblot of lysates from isolated control myocytes. Format: cell-based.
The subject of the next data set is eNOS. The experiment in a line: immunoblot of eNOS phosphorylated at serine 1177 in myocytes. Format: cell-based. The conditions noted are these: acute infusion, 100 nM. From the text:
FIG. 8 depicts an immunoblot of eNOS phosphorylated at serine 1177 (^ser1177p-eNOS) and total eNOS (t-eNOS), taken from myocytes under control conditions (NS) and treated with LM22A-4.
Another possible mechanism of protection granted by TrkB stimulation is eNOS stimulation. […] Thus, it is plausible that TrkB agonists enhance eNOS signaling. FIG. 8 depicts an immunoblot of eNOS phosphorylated at serine 1177 (^ser1177p-eNOS) and total eNOS (t-eNOS), taken from myocytes under control conditions (NS) and treated with LM22A-4.

The mark [2] stands for this setting: 0.2 mg/kg/day in saline, chronic infusion started 1 week after MI, 4 weeks after severe MI.

Regarding `O=C(NCCO)c1cc(C(=O)NCCO)cc(C(=O)NCCO)c1` [LM22A-4, N,N′,N″-tris(2-hydroxyethyl)-1,3,5-benzenetricarboxamide], in data set [1] (setting [2]), the LVDs is listed as 6.1±0.25 mm and the “ejection fraction (% EF)” value amounted to 23.3±2.1%. In addition, the “fibrosis compared to the MI group without treatment” value in data set [1] (cardiac tissue sections, MI+LM22A-4 group) was “lower”. In addition, in data set [1] (chronic infusion, MI mice), the heart rate was 494±17.8 bpm. Besides, the “myocardial BDNF (immunoblot)” value in the data set on BDNF is given as “induced myocardial BDNF”. Further, the “eNOS activation by phosphorylation at serine 1177” value in the data set on eNOS was “activates eNOS”.
